The values below come from PubChem BioAssay (NCI).

What all share (assay): inhibition of tumour cell growth, NCI panel, 48 h
The subject of assay [1] is MALME-3M melanoma.
Assay [2] has as its system A549 NSCLC.
The subject of assay [3] is SF-295 CNS.
For assay [4], the system named is SK-MEL-5 melanoma.
Assay [5] relates to SK-OV-3 ovarian.
Assay [6] concerns HCT-15 colon.
Assay [7] relates to UACC-257 melanoma.
Assay [8] relates to MDA-MB-435.
Assay [9] deals with M14 melanoma.
Assay [10] concerns OVCAR-5 ovarian.

Molecules are shown by their SMILES.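 1) Cells in 96-well plates. 2) Compound, 48 h, 5 concentrations. 3) Linear interpolation between surrounding doses. 4) Unreached endpoint = highest concentration. The concentration for 50% growth inhibition is given as GI50. The concentration for full growth arrest is given as TGI.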 Where only a bound is given, the exact number is not on record here.

As to `Cc1cc(N2CCN(C)CC2)n2nc(-c3ccc(Cl)cc3)nc2n1`, the TGI in assay [1], in [2], in assay [3], in assay [4], in assay [5] and in assay [6] was more than 100 µM each time. The TGI in assay [7], in [8], in assay [9] and in assay [10] was more than 100 µM each time.

On to `NC(=S)c1c(N)n(C2OC(CO)C(O)C2O)c2ncnc(N)c12` (stereo not given), for which the GI50 in assay [1] was 0.426 µM; in assay [2], 0.301 µM; in assay [3], 0.659 µM; in [4], 0.162 µM; in [5], 0.388 µM; in assay [6], 0.0573 µM. For the same molecule, the GI50 in assay [7] is 0.729 µM; in assay [8], 0.259 µM; in [9] it was 0.178 µM; in assay [10], 0.342 µM. Also, the TGI in assay [1] was 2.23 µM; in assay [2] it was more than 100 µM; in assay [3] it was more than 27.1 µM; in assay [4] it was 2.05 µM; in assay [5], more than 100 µM; in assay [6], 0.435 µM. The TGI in assay [7] came to 4.8 µM; in assay [8], 1.01 µM; in assay [9] it was 0.648 µM; in assay [10], 2.92 µM.

Regarding `CN(Cc1cnc2nc(N)nc(N)c2n1)c1ccc(C(=O)NC(CCC(=O)O)C(=O)O)cc1Br` (stereo not given), the GI50 in assay [1] is less than 0.01 µM; in [2], less than 0.01 µM; in assay [3] it was less than 0.01 µM; in [4], less than 0.01 µM; in assay [5], 0.047 µM; in assay [6], less than 0.01 µM. In addition, the GI50 was 0.168 µM in [7], less than 0.01 µM in [8], less than 0.01 µM in [9] and less than 0.031 µM in [10]. Further, the TGI in assay [1] is 3.92 µM; in [2] it was more than 100 µM; in assay [3], 0.201 µM; in assay [4], 4.51 µM; in assay [5], more than 100 µM; in [6] it was more than 100 µM. Also, the TGI was 16.5 µM in assay [7], 5.15 µM in assay [8], 5.95 µM in assay [9] and more than 100 µM in assay [10].

For `O=C(CN1C(=O)S/C(=C\C(Cl)=C\c2ccccc2)C1=O)NC1C=CS(=O)(=O)C1` (stereo not given), the GI50 was 1.27 µM in [1]; 3 µM in [2]; 2.32 µM in [3]; 1.72 µM in assay [4]; 3.3 µM in [5]; 0.378 µM in [6]. Also, the GI50 in [7] is 2.18 µM; in assay [8], 1.55 µM; in [9] it was 1.31 µM; in assay [10], 2.31 µM. Moreover, the TGI in [1] is 3.93 µM; in [2], more than 100 µM; in assay [3], 5.19 µM; in assay [4], 3.22 µM; in [5], 32.6 µM; in assay [6], 3.47 µM. The TGI came out at 8.82 µM in assay [7], 3.41 µM in assay [8], 4.69 µM in [9] and 6.13 µM in assay [10].

In the case of `COc1cc2cc(Oc3ccc(NC(=O)Nc4ccc(Cl)c(Cl)c4)cc3)c(C)nc2cc1OC`, the GI50 in assay [1] was 3.02 µM; in assay [2], 1.64 µM; in [3], 1.96 µM; in assay [4], 2.58 µM; in assay [5], 7.56 µM; in assay [6] it was 3.56 µM. The GI50 was 2.31 µM in assay [7], 3.09 µM in assay [8], 2.56 µM in assay [9] and 10.1 µM in assay [10]. Moreover, the TGI in assay [1] was 7.72 µM; in assay [2], 7.61 µM; in assay [3], 6.08 µM; in assay [4] it was 8.09 µM; in assay [5], 26.4 µM; in assay [6] it was more than 100 µM. For the same molecule, the TGI in assay [7] is 6.28 µM; in assay [8], 16.8 µM; in assay [9], 10.5 µM; in [10], 34.3 µM.

As for `O=C1Cc2cc(C(=O)NC3C[C@H]4CC[C@@H](C3)N4S(=O)(=O)CC3CCN(CCCC(F)(F)F)CC3)c(Cl)cc2N1` (stereo not given in full), the GI50 in assay [1], in assay [2], in [3], in assay [4], in assay [5] and in [6] was more than 100 µM each time. In addition, the GI50 in assay [7], in [8], in [9] and in assay [10] was more than 100 µM each time. Further, the TGI in [1], in assay [2], in [3], in [4], in assay [5] and in assay [6] was more than 100 µM each time. Besides, the TGI in [7], in assay [8], in [9] and in assay [10] was more than 100 µM throughout.

On to `O=S(=O)(c1cnccc1N1CCN(CCO)CC1)N1CCCC1`, for which the TGI in assay [1], in [2], in assay [3], in assay [4], in assay [5] and in assay [6] was more than 100 µM throughout. Besides, the TGI in [7], in [8], in assay [9] and in [10] was more than 100 µM each time.

Turning to `O=C1NC(=NCCCc2ccccc2)S/C1=C\c1ccc2ncccc2c1`, the GI50 was 7.43 µM in assay [1]; 4.68 µM in [2]; 4.75 µM in assay [3]; 4.63 µM in assay [4]; 5.33 µM in [5]; 2.9 µM in assay [6]. Moreover, the GI50 in assay [7] was 6.73 µM; in assay [8], 5.81 µM; in assay [9], 9.63 µM; in [10], 8.09 µM. Also, the TGI in assay [1] was 19.3 µM; in [2] it was 13.8 µM; in assay [3], more than 17.5 µM; in [4], 9.8 µM; in assay [5], 12.2 µM; in [6], more than 25 µM. Also, the TGI in assay [7] was 22.9 µM; in [8] it was more than 18 µM; in assay [9], more than 25 µM; in assay [10], more than 25 µM.
